Data published in patent US11959100B2, “Method for culture of cells” (Kyoto University, priority 2017, dated 2024).
Values belong to the compound of their own block, whether it stands above or below them.

Experiments:
[1] = tested on: neural crest cells (NCCs); test: Expansion (suspension) culture of neural crest cells: total cell number / rate of cell proliferation; format: cell-based, Human; conditions: for influence of concentration on change in total cell number: bFGF and EGF 20 or 40 ng/ml, CHIR99021 1, 2, 3, 3.5, 4, 4.5 or 5 μM
From the text: (§1) Human iPSCs were allowed to differentiate into neural crest cells (NCCs) according to the method described in Non Patent Literature 1. The iPSCs used were SOX10-Nano-Lantern Reporter Human iPSCs (201B7 line) described in Non Patent Literature 4. This cell line has an insert of a nucleotide sequence encoding a fluorescent protein Nano-Lantern (Saito K. et al., “Luminescent proteins for high-speed single-cell and whole-body imaging.” Nat. Commun., 2012; 3: 1262) downstream of SOX10 gene, a marker gene of NCCs, and expresses a fusion protein of SOX10 and Nano-Lantern under the control of SOX10 promoter.
(§2) iPSCs were inoculated to a Matrigel-coated dish, adherent-cultured for 4 days in TeSR1 medium, and then adherent-cultured for 10 days in CDM medium containing 10 μM SB431542 (TGFβ inhibitor) and 1 μM CHIR99021 (GSK3β inhibitor), and thereby allowed to differentiate into NCCs.
NCCs were detached from the dish and suspension-cultured in CDM medium containing 10 μM SB431542, 3 μM CHIR99021, 40 ng/ml bFGF and 40 ng/ml EGF. The cells were passaged every 7 days.
(§3) Change in total cell number after the start of expansion culture is shown in FIG. 1, and change in the percentage of SOX10 expression-positive cells is shown in FIG. 2. In order to measure the percentage of SOX10 expression-positive cells, an aggregated cell mass was dissociated using StemPro Accutase Cell Dissociation Reagent (Invitrogen Corp.) to prepare single-cell suspensions. The single-cell suspensions in FACS buffer (2% BSA HBSS) supplemented with 1 μg/mL PI (propidium iodide, Wako Pure Chemical Industries, Ltd.) were filtered through a tube with 35 μm nylon mesh (BD Falcon) and then analyzed using a flow cytometer (FACS Aria, BD Biosciences) to measure the ratio of GFP-positive cells in live cells (PI-negative cells). […] The expressed SOX10 serves as a marker of NCCs having multipotency.

GSK3β = GSK3β (Homo sapiens, UniProt P49841); test: GSK3β inhibitory activity, CellSensor LEF/TCF-bla HCT-116 reporter assay; format: cell-based
From the text: In the Wnt/β-catenin pathway, GSK3β functions to phosphorylate β-catenin in the absence of Wnt-ligand. The phosphorylated β-catenin is ubiquitinated and degraded within the proteasome. Therefore, gene expression downstream of the Wnt-β-catenin pathway is suppressed. If GSK3β in this pathway is inhibited, β-catenin is translocated into the nucleus, without being degraded, to induce gene expression downstream of the Wnt-β-catenin pathway together with other transcription factors such as T-cell factor (TCF)/lymphoid enhancer factor (LEF). CellSensor LEF/TCF-bla HCT-116 Cell Line (Thermo Fisher Scientific Inc., K1676) stably incorporates therein LEF/TCF and incorporates a reporter gene (beta-lactamase reporter gene) so as to express the reporter gene under the control of LEF/TCF. The expression of the reporter gene in this cell line in the absence of the Wnt-ligand serves as an index for the inhibition of the function (β-catenin phosphorylation function) of GSK3β. The GSK3β inhibitory activity of the GSK3β inhibitor was measured by assay using this cell line.
The assay was conducted in accordance with the protocol of Invitrogen Corp. (CellSensor® LEF/TCF-bla HCT 116 Cell-based Assay Protocol).
Specifically, LEF/TCF-bla HCT-116 Cells were suspended in an assay medium (OPTI-MEM, 0.5% dialyzed FBS, 0.1 mM NEAA, 1 mM sodium pyruvate, 100 U/mL/100 μg/mL Pen/Strep) (312,500 cells/mL). The cell suspension was inoculated to each well of an assay plate (10,000 cells/well), and cultured for 16 to 24 hours.
A beta-lactamase substrate solution (LiveBLAzer-FRET B/G (CCF4-AM) Substrate Mixture) was added to each well (8 μL/well) and incubated for 2 hours. A fluorescence value was measured in a fluorescence plate reader. The measurement was performed in two wells per each concentration condition.

neural crest cells [2] = conditions: 1 μM CHIR99021; culture for 7 days; suspension culture; cited from earlier work
[3] = tested on: neural crest cells (NCCs); test: Expansion (suspension) culture of neural crest cells: percentage of SOX10 expression-positive cells by flow cytometry; format: cell-based, Human; conditions: for influence of concentration on change in the percentage of SOX10 expression-positive cells: bFGF and EGF 20 or 40 ng/ml
From the text: as §1, §2
[…] The cells were passaged every 7 days.
as §3

neural crest cells [4] = conditions: bFGF 0 pg/ml to 10 ng/ml; adherent culture; cited from earlier work
[5] = bFGF 10, 12.5, 15.0 or 17.5 ng/ml, CHIR99021 1.5 μM

GSK3β, sequence (P49841 whole entry): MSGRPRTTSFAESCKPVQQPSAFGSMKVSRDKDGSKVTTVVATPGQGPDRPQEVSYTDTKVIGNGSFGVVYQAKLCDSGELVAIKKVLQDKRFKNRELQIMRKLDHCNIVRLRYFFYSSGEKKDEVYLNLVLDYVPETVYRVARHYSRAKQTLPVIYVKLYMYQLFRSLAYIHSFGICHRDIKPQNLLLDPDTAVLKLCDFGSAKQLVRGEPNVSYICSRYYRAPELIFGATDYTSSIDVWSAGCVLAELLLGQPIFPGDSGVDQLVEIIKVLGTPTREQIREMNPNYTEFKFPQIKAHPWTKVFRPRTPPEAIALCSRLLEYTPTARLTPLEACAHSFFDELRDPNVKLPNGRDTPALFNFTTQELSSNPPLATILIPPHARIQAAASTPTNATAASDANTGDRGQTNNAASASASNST

Fluorescence value Well 1 (GSK3β; 0.316 nM): 6 | Fluorescence value Well 2 (GSK3β; 0.316 nM): 0 | Fluorescence value Well 1 (GSK3β; 1.00 nM): 0 | Fluorescence value Well 2 (GSK3β; 1.00 nM): 0 | Fluorescence value Well 1 (GSK3β; 3.16 nM): 0 | Fluorescence value Well 2 (GSK3β; 3.16 nM): 14 | Fluorescence value Well 1 (GSK3β; 10.0 nM): 12 | Fluorescence value Well 2 (GSK3β; 10.0 nM): 23 | Fluorescence value Well 1 (GSK3β; 31.6 nM): 21 | Fluorescence value Well 2 (GSK3β; 31.6 nM): 45 | Fluorescence value Well 1 (GSK3β; 100 nM): 75 | Fluorescence value Well 2 (GSK3β; 100 nM): 60 | Fluorescence value Well 1 (GSK3β; 316 nM): 101 | Fluorescence value Well 2 (GSK3β; 316 nM): 96 | GSK3β inhibitory activity in terms of the fluorescence value (mean from the two wells) (GSK3β; 1 μM): 113.5 | Fluorescence value Well 1 (GSK3β; 1000 nM): 114 | Fluorescence value Well 2 (GSK3β; 1000 nM): 113 | Fluorescence value Well 1 (GSK3β; 3160 nM): 99 | Fluorescence value Well 2 (GSK3β; 3160 nM): 136 | Fluorescence value Well 1 (GSK3β; 10000 nM): 88 | Fluorescence value Well 2 (GSK3β; 10000 nM): 73
Compound: Cc1c[nH]c(-c2cnc(NCCNc3ccc(C#N)cn3)nc2-c2ccc(Cl)cc2Cl)n1 [CHIR99021, 6-[[2-[[4-(2,4-dichlorophenyl)-5-(4-methyl-1H-imidazol-2-yl)-2-pyrimidinyl]amino]ethyl]amino]nicotinonitrile]
change in total cell number after the start of expansion culture ([1]; 3 μM CHIR99021, 10 μM SB431542, 40 ng/ml bFGF, 40 ng/ml EGF, whole culture period): increased over the whole period | influence of concentration on change in total cell number [1]: no influence | presence of Sox10-positive cells (neural crest cells [2]): presence of Sox10-positive cells was confirmed | percentage of SOX10 expression-positive cells ([3]; 3 μM CHIR99021, 10 μM SB431542, 40 ng/ml bFGF, 40 ng/ml EGF, on 121 days of culture): high percentage of SOX10 expression-positive cells was confirmed | time of culture at which the number of cells that maintained multipotency decreased ([3]; CHIR99021 1 μM): 21 days | percentage of SOX10 expression-positive cells ([3]; CHIR99021 1 μM, on 21 days of culture): decrease in the percentage of SOX10 expression-positive cells was observed | percentage of SOX10 expression-positive cells ([3]; CHIR99021 1 μM, on 63 days of culture): ≤ 25% | period over which multipotency was maintained ([3]; CHIR99021 2 μM): ≥ 63 days | percentage of SOX10 expression-positive cells ([3]; CHIR99021 2 μM, on 63 days of culture): ≥ 55% | time of culture at which the number of cells that maintained multipotency decreased ([3]; CHIR99021 5 μM): 42 days | percentage of SOX10 expression-positive cells ([3]; CHIR99021 5 μM, on 63 days of culture): ≤ 5% | percentage of SOX10 expression-positive cells ([3]; CHIR99021 5 μM, up to 42 days of culture): ≥ 55% | period of culture and proliferation of neural crest cells that maintained multipotency ([3]; CHIR99021 3 to 4.5 μM): ≥ 112 days | percentage of SOX10 expression-positive cells ([3]; CHIR99021 3 to 4.5 μM, on 121 days of culture): ≥ 90%

Compound: EGF: epidermal growth factor, medium additive
influence of concentration on change in total cell number [1]: no influence | influence of concentration on change in the percentage of SOX10 expression-positive cells [3]: no influence

Compound: Cn1cc(C2=C(c3cccc(N)c3)C(=O)NC2=O)c2ccccc21 [CP21R7, 3-(3-amino-phenyl)-4-(1-methyl-1H-indol-3-yl)-pyrrole-2,5-dione]
time of culture at which the number of cells that maintained multipotency decreased ([3]; CP21R7 0.1 μM): 21 days | percentage of SOX10 expression-positive cells ([3]; CP21R7 0.1 μM, on 21 days of culture): started to decrease | percentage of SOX10 expression-positive cells ([3]; CP21R7 0.5 or 1 μM, on 84 days of culture): high percentage of SOX10 expression-positive cells was confirmed | period of culture and proliferation of neural crest cells that maintained multipotency ([3]; CP21R7 0.5 to 1 μM): ≥ 84 days

Compound: bFGF: basic fibroblast growth factor (bFGF (also referred to as FGF2)), medium additive
behavior of change in total cell number [1, 5]: substantially the same | influence of concentration on change in total cell number [1]: no influence | number and ratio of neural crest cells in a cultured cell population (neural crest cells [4]): decreased in a concentration-dependent manner | influence of bFGF concentration on the percentage of SOX10 expression positivity [3, 5]: no influence | influence of concentration on change in the percentage of SOX10 expression-positive cells [3]: no influence
